This passage reports IC50 results from patent publication US20260131009A1, “BIFUNCTIONAL PI3K-ALPHA INHIBITORS AND USES THEREOF” (Relay Therapeutics, Inc., priority 2021, published 2026).

Molecules are shown by their SMILES.

One test concerns the target PI3Kα (Homo sapiens, UniProt P42336, H1047R). Briefly: ADP-Glo IC50 assay. As to conditions: class symbols; key not given. It is filed as biochemical. On the technique in general: In ADP-Glo the light output rises with the ADP produced.
Another test relates to MCF10A. Briefly: MCF10A IC50 assay. Type of test: cell-based. Particulars: Homo sapiens, MCF-10A; class symbols; key not given. In short, it runs like this: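 MCF10A cells overexpressing hotspot PIK3CA mutations were seeded at 5,000 per well in supplemented DMEM/F12 and adhered overnight (37 °C, 5% CO₂). Compounds were added acoustically as 12-dose 1:3 series, in duplicate, for 2 hours. Cells were lysed 60 min, then incubated 4 hours at room temperature with CisBio phospho-AKT (Ser473) HTRF antibodies and read on an Envision 2105. IC₅₀ for AKT phosphorylation came from Genedata software and was reported as binned categories.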

Sequence of PI3Kα (P42336 whole entry H1047R): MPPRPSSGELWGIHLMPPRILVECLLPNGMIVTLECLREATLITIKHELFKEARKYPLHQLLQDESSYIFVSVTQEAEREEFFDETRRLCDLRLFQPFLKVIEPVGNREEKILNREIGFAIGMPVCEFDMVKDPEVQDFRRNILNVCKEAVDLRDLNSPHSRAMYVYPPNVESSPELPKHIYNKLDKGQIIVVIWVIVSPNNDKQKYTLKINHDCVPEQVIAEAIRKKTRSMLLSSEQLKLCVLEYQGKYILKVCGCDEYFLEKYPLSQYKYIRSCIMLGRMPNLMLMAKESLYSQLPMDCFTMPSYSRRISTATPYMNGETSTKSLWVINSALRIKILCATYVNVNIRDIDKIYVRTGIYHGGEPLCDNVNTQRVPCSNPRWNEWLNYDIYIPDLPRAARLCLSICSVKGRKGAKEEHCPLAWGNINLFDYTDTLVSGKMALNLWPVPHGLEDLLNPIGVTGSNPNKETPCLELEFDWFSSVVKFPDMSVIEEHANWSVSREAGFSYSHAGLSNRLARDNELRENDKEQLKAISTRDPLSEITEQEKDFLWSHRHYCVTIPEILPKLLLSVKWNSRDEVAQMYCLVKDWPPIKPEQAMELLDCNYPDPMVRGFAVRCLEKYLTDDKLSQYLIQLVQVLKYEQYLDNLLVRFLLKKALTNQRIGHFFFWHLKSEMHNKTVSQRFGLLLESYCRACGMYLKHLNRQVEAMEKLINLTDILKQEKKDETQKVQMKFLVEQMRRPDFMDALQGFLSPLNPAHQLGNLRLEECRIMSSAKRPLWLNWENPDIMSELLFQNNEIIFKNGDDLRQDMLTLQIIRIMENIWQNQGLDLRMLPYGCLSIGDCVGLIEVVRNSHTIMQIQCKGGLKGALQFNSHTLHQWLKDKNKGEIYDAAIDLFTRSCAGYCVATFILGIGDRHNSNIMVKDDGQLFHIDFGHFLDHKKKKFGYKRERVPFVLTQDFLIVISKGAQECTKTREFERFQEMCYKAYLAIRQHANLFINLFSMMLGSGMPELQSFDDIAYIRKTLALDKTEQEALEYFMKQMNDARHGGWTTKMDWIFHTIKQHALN
Sequence of PI3Kα (P27986 whole entry partner): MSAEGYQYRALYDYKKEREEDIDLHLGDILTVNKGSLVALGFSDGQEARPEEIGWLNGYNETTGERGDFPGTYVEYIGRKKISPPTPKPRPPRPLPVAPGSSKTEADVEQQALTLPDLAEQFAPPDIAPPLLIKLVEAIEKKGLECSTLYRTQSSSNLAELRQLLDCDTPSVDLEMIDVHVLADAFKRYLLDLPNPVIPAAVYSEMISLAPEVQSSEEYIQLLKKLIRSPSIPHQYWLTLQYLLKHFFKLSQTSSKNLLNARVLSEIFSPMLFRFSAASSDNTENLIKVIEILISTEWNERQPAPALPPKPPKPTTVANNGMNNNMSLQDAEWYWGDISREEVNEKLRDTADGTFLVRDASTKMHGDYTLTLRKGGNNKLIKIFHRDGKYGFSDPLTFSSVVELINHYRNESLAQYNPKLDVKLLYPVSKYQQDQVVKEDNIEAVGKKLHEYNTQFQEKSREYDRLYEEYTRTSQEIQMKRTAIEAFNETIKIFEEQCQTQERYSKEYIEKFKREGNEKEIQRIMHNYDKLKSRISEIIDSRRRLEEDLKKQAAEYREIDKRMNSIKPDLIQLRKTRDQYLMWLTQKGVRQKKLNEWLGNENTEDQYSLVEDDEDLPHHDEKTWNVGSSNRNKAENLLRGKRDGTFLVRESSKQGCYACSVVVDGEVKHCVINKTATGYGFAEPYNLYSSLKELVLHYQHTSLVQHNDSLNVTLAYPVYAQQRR

Take `Cc1ccccc1Nc1ncc(C(=O)NCCCCCCCCCNc2ccc3c(c2)C(=O)N(C2CCC(=O)NC2=O)C3=O)cc1NC(=O)c1csc2ccccc12` (centres unmarked) [Example I-12]: the concentration for half-maximal inhibition (IC50) (as a rule, the concentration needed to halve the response being measured) lay within 100 to 500 nM on PI3Kα and 10 to 36 µM in the test on MCF10A.

For `Cc1ccccc1Nc1ncc(C(=O)NCCCCCCCNC(=O)c2ccc3c(c2)CN(C2CCC(=O)NC2=O)C3=O)cc1NC(=O)c1csc2ccccc12` (centres unmarked) [Example I-5], the values for the half-inhibitory concentration (IC50) on PI3Kα and in the test on MCF10A were 100 to 500 nM and 10 to 36 µM, respectively.

With `CCCCCCCCCCCCNC(=O)c1cnc(Nc2ccccc2C)c(NC(=O)c2csc3ccccc23)c1` [Example I-28], the IC50 against PI3Kα is 1000 to 10000 nM; in the test with MCF10A, 10 to 36 µM.

On to `Cc1cc(Br)c2oc(N3CCN(C(=O)CCCCCCCNC(=O)c4cnc(Nc5ccccc5C)c(NC(=O)c5csc6ccccc56)c4)CC3)cc(=O)c2c1` [Example I-87], for which the IC50 is 100 to 500 nM on PI3Kα and under 1 µM in the test on MCF10A.

In the case of `Cc1ccccc1Nc1ncc(C(=O)NCCCCCC(=O)NCc2ccc3c(c2)CN(C2CCC(=O)NC2=O)C3=O)cc1NC(=O)c1csc2ccccc12` (centres unmarked) [Example I-9], the IC50 against PI3Kα was 100 to 500 nM; in the test on MCF10A, 10 to 36 µM.

On to `Cc1ccccc1Nc1ncc(C(=O)NCCCCCCCC(=O)N[C@H](C(=O)N2C[C@H](O)C[C@H]2C(=O)N[C@@H](C)c2ccc(-c3scnc3C)cc2)C(C)(C)C)cc1NC(=O)c1csc2ccccc12` [Example I-8], for which the figures for the IC50 at PI3Kα and with MCF10A were 100 to 500 nM and 10 to 36 µM, respectively.

`Cc1cc(Br)c2oc(N3CCN(C(=O)CCCCCCCCNC(=O)c4cnc(Nc5ccccc5C)c(NC(=O)c5csc6ccccc56)c4)CC3)cc(=O)c2c1` [Example I-78]: the figures for the IC50 on PI3Kα and with MCF10A were 100 to 500 nM and 10 to 36 µM, respectively.

As to `Cc1ccccc1Nc1ncc(C(=O)NCCOCCOCCOCCC(=O)N[C@H](C(=O)N2C[C@H](O)C[C@H]2C(=O)N[C@@H](C)c2ccc(-c3scnc3C)cc2)C(C)(C)C)cc1NC(=O)c1csc2ccccc12` [Example I-4], the IC50 lay in the range of 1000 to 10000 nM against PI3Kα and 10 to 36 µM in the test with MCF10A.

For the compound `Cc1ccccc1Nc1ncc(C(=O)NCCCCCCCCCC(N)=O)cc1NC(=O)c1csc2ccccc12` [Example I-24], the figures for the IC50 on PI3Kα and in the test on MCF10A were under 100 nM and 1 to 5 µM, respectively.

Regarding `Cc1ccccc1Nc1ncc(C(=O)NCCCCCCCCCNC(=O)c2ccc3c(c2)CN(C2CCC(=O)NC2=O)C3=O)cc1NC(=O)c1csc2ccccc12` (centres unmarked) [Example I-2], the half-maximal inhibitory concentration (IC50) against PI3Kα was in the range of 500 to 1000 nM; in the test on MCF10A, 10 to 36 µM.

As to `Cc1ccccc1Nc1ncc(C(=O)NCCCCCNc2cccc3c2C(=O)N(C2CCC(=O)NC2=O)C3=O)cc1NC(=O)c1csc2ccccc12` (centres unmarked) [Example I-22], the half-maximal inhibitory concentration (IC50) against PI3Kα fell in the range of 100 to 500 nM; in the test on MCF10A, 10 to 36 µM.

Regarding `Cc1ccccc1Nc1ncc(C(=O)NCCCCCCCCCC(=O)O)cc1NC(=O)c1csc2ccccc12` [Example I-25], the IC50 is under 100 nM against PI3Kα and 1 to 5 µM in the test with MCF10A.

As for `Cc1ccccc1Nc1ncc(C(=O)NCCCCCNc2ccc3c(c2)C(=O)N(C2CCC(=O)NC2=O)C3=O)cc1NC(=O)c1csc2ccccc12` (centres unmarked) [Example I-17], the results for the IC50 against PI3Kα and in the test with MCF10A were under 100 nM and 5 to 10 µM, respectively.

As for `Cc1ccccc1Nc1ncc(C(=O)NCCCCCCCCCC(=O)N[C@H](C(=O)N2C[C@H](O)C[C@H]2C(=O)N[C@@H](C)c2ccc(-c3scnc3C)cc2)C(C)(C)C)cc1NC(=O)c1csc2ccccc12` [Example 1-7], the IC50 was in the range of 100 to 500 nM at PI3Kα and 10 to 36 µM in the test with MCF10A.

Take `Cc1ccccc1Nc1ncc(C(=O)NCCCCNc2ccc3c(c2)C(=O)N(C2CCC(=O)NC2=O)C3=O)cc1NC(=O)c1csc2ccccc12` (centres unmarked) [Example I-54]: the IC50 against PI3Kα was under 100 nM; in the test on MCF10A, 10 to 36 µM.

Consider `Cc1ccccc1Nc1ncc(C(=O)NCCOCCOCCOCCOCCC(=O)N[C@H](C(=O)N2C[C@H](O)C[C@H]2C(=O)N[C@@H](C)c2ccc(-c3scnc3C)cc2)C(C)(C)C)cc1NC(=O)c1csc2ccccc12` [Example I-13], for which the IC50 on PI3Kα is 1000 to 10000 nM; in the test with MCF10A it was 10 to 36 µM.

For the compound `Cc1ccccc1Nc1ncc(C(=O)NCCOCCOCCOCCOCCOCCC(=O)N[C@H](C(=O)N2C[C@H](O)C[C@H]2C(=O)N[C@@H](C)c2ccc(-c3scnc3C)cc2)C(C)(C)C)cc1NC(=O)c1csc2ccccc12` [Example I-11], the IC50 against PI3Kα was 1000 to 10000 nM; with MCF10A, 10 to 36 µM.

Turning to `Cc1ccccc1Nc1ncc(C(=O)NCCCCCCCNc2ccc3c(c2)C(=O)N(C2CCC(=O)NC2=O)C3=O)cc1NC(=O)c1csc2ccccc12` (centres unmarked) [Example I-39], the IC50 on PI3Kα was in the range of 100 to 500 nM; in the test with MCF10A, 10 to 36 µM.

Regarding `Cc1cc(Br)c2oc(N3CCN(C(=O)CCCCCCCCCNC(=O)c4cnc(Nc5ccccc5C)c(NC(=O)c5csc6ccccc56)c4)CC3)cc(=O)c2c1` [Example I-82], the values for the IC50 against PI3Kα and in the test on MCF10A were 100 to 500 nM and 10 to 36 µM, respectively.

`Cc1ccccc1Nc1ncc(C(=O)NCC#Cc2ccc3c(c2)CN(C2CCC(=O)NC2=O)C3=O)cc1NC(=O)c1csc2ccccc12` (centres unmarked) [Example I-53]: the IC50 is under 100 nM against PI3Kα and under 1 µM in the test with MCF10A.

Turning to `Cc1ccccc1Nc1ncc(C(=O)NCCCCCNC(=O)c2ccc3c(c2)CN(C2CCC(=O)NC2=O)C3=O)cc1NC(=O)c1csc2ccccc12` (centres unmarked) [Example I-1], the results for the IC50 against PI3Kα and in the test with MCF10A were 100 to 500 nM and 10 to 36 µM, respectively.

For the compound `O=C1CCC(N2Cc3cc(C(=O)NCCOCCOCCOCCOCCOCCOCCOCCOCCOCCOCCOCCOCCNC(=O)c4cc(NC(=O)c5cc(F)cc(C(F)(F)F)c5)c5c(c4)C(=O)N[C@@H]5c4cc(F)ccc4Cl)ccc3C2=O)C(=O)N1` (some centres unmarked) [Example I-153], the IC50 on PI3Kα lay within 1000 to 10000 nM.

On to `Cc1ccccc1Nc1ncc(C(=O)NCCCC(=O)N[C@H](C(=O)N2C[C@H](O)C[C@H]2C(=O)N[C@@H](C)c2ccc(-c3scnc3C)cc2)C(C)(C)C)cc1NC(=O)c1csc2ccccc12` [Example I-57], for which the IC50 at PI3Kα was 500 to 1000 nM.

`Cc1cc(Br)c2oc(N3CCN(C(=O)CCCCCNC(=O)c4cnc(Nc5ccccc5C)c(NC(=O)c5csc6ccccc56)c4)CC3)cc(=O)c2c1` [Example I-101]: the IC50 on PI3Kα is 100 to 500 nM.

Consider `Cc1ccccc1Nc1ncc(C(=O)NCCOCCOCCOCCOCCOCCOCCC(=O)NCc2ccc3c(c2)CN(C2CCC(=O)NC2=O)C3=O)cc1NC(=O)c1csc2ccccc12` (centres unmarked) [Example I-52], for which the IC50 at PI3Kα was in the range of 10000 to 100000 nM.

Compound `O=C1CCC(N2Cc3cc(C(=O)NCCCCCCCCNC(=O)c4cc(NC(=O)c5cccc(C(F)(F)F)c5)c5c(c4)C(=O)N[C@@H]5c4cc(F)ccc4Cl)ccc3C2=O)C(=O)N1` (some centres unmarked) [Example I-150] registered an IC50 on PI3Kα of 1000 to 10000 nM.

At PI3Kα, `O=C1CCC(N2Cc3cc(C(=O)NCCOCCOCCOCCOCCOCCOCCOCCOCCOCCOCCOCCOCCNC(=O)c4cc(NC(=O)c5cc(F)cc(C(F)(F)F)c5)c5c(c4)C(=O)N[C@H]5c4cc(F)ccc4Cl)ccc3C2=O)C(=O)N1` (some centres unmarked) [Example I-157] yielded an IC50 of 500 to 1000 nM.

On PI3Kα, `Cc1ccccc1Nc1ncc(C(=O)NCCOCCOCCC(=O)N[C@H](C(=O)N2C[C@H](O)C[C@H]2C(=O)NCc2ccc(-c3scnc3C)cc2)C(C)(C)C)cc1NC(=O)c1csc2ccccc12` [Example I-37] had an IC50 of 1000 to 10000 nM.

`Cc1ccccc1Nc1ncc(C(=O)NCCOCCOCCOCCC(=O)N[C@H](C(=O)N2C[C@H](O)C[C@H]2C(=O)NCc2ccc(-c3scnc3C)cc2)C(C)(C)C)cc1NC(=O)c1csc2ccccc12` [Example I-35] had a concentration for half-maximal inhibition (IC50) against PI3Kα of 1000 to 10000 nM.

`Cc1ccccc1Nc1ncc(C(=O)NCCCC[C@H](N)C(=O)N[C@H](C(=O)N2C[C@H](O)C[C@H]2C(=O)NCc2ccc(-c3scnc3C)cc2)C(C)(C)C)cc1NC(=O)c1csc2ccccc12` [Example I-74]: the 50% inhibitory concentration (IC50) against PI3Kα fell in the range of 1000 to 10000 nM.

As for `NC(=O)CCCCCCCCCNC(=O)c1cnc(Nc2cc(F)ccc2Cl)c(NC(=O)c2csc3ccccc23)c1` [Example I-68], the IC50 against PI3Kα was 100 to 500 nM.

Turning to `O=C1CCC(N2C(=O)c3ccc(NCCCCCNC(=O)c4cc(NC(=O)c5cc(F)cc(C(F)(F)F)c5)c5c(c4)C(=O)N[C@@H]5c4cc(F)ccc4Cl)cc3C2=O)C(=O)N1` (some centres unmarked) [Example I-75], the IC50 against PI3Kα was 500 to 1000 nM.

On PI3Kα, `Cc1ccccc1Nc1ncc(C(=O)NCCCNc2cccc3c2C(=O)N(C2CCC(=O)NC2=O)C3=O)cc1NC(=O)c1csc2ccccc12` (centres unmarked) [Example I-51] gave an IC50 of 100 to 500 nM.

Regarding `Cc1cc([C@H](C)Nc2ccccc2C(=O)O)c2oc(N3CCN(C(=O)CCCCCCNc4ccc5c(c4)C(=O)N(C4CCC(=O)NC4=O)C5=O)CC3)cc(=O)c2c1` (some centres unmarked) [Example I-129], the half-maximal inhibitory concentration (IC50) at PI3Kα was 1000 to 10000 nM.

In the case of `Cc1ncsc1-c1ccc([C@H](C)NC(=O)[C@@H]2C[C@@H](O)CN2C(=O)[C@@H](NC(=O)CCCCCCCCCNC(=O)c2cc(NC(=O)c3cc(F)cc(C(F)(F)F)c3)c3c(c2)C(=O)N[C@H]3c2cc(F)ccc2Cl)C(C)(C)C)cc1` [Example I-88], the 50% inhibitory concentration (IC50) against PI3Kα was in the range of 500 to 1000 nM.

For `O=C1CCC(N2Cc3cc(C(=O)NCCCCCCCCCNC(=O)c4cc(NC(=O)c5csc6ccccc56)c5c(c4)C(=O)NC5c4cc(F)ccc4Cl)ccc3C2=O)C(=O)N1` (centres unmarked) [Example I-159], the IC50 at PI3Kα was under 100 nM.

Turning to `O=C1CCC(N2Cc3cc(C(=O)NCCCCCCCCCNC(=O)c4cc(NC(=O)c5cccc(F)c5)c5c(c4)C(=O)N[C@@H]5c4cc(F)ccc4Cl)ccc3C2=O)C(=O)N1` (some centres unmarked) [Example I-161], the IC50 against PI3Kα lay in the range of 1000 to 10000 nM.

`O=C1CCC(N2Cc3cc(C(=O)NCCCCCCCCCCNC(=O)c4cc(NC(=O)c5cccc(C(F)(F)F)c5)c5c(c4)C(=O)N[C@H]5c4cc(F)ccc4Cl)ccc3C2=O)C(=O)N1` (some centres unmarked) [Example I-152]: the 50% inhibitory concentration (IC50) at PI3Kα was in the range of 100 to 500 nM.

The compound `Cc1ccccc1Nc1ncc(C(=O)NCCCCCC(=O)N[C@H](C(=O)N2C[C@H](O)C[C@H]2C(=O)NCc2ccc(-c3scnc3C)cc2)C(C)(C)C)cc1NC(=O)c1csc2ccccc12` [Example I-38] displayed an IC50 on PI3Kα of 100 to 500 nM.

Regarding `Cc1cc([C@H](C)Nc2ccccc2C(=O)O)c2oc(N3CCN(C(=O)CCNc4ccc5c(c4)C(=O)N(C4CCC(=O)NC4=O)C5=O)CC3)cc(=O)c2c1` (some centres unmarked) [Example I-130], the IC50 against PI3Kα was in the range of 1000 to 10000 nM.

Consider `Cc1ccccc1Nc1ncc(C(=O)NCCCCNc2cccc3c2C(=O)N(C2CCC(=O)NC2=O)C3=O)cc1NC(=O)c1csc2ccccc12` (centres unmarked) [Example I-49], for which, on PI3Kα, the half-inhibitory concentration (IC50) fell in the range of 100 to 500 nM.
